Test results: ChEMBL document CHEMBL5030514, “Discovery of Anti-TNBC Agents Targeting PTP1B: Total Synthesis, Structure-Activity Relationship, In Vitro and In Vivo Investigations of Jamunones” (J Med Chem, 2021)
pIC50: −log10 of the molar value. The source made the active and inactive calls. No cut-off for these calls is given here.

Columns and labels:
[1] = tested on: MDA-MB-231; experiment: Induction of mitochondrial apoptosis in human MDA-MB-231 cells assessed as total apoptotic cells by fluorescein isothiocyanate -annexin V/PI double staining based flow cytometric analysis (reference value: 3.5%); assay type: functional
[2] = tested on: MCF7; experiment: Induction of apoptosis in human MCF-7 cells assessed as increase in production of cleaved caspase-3 at 1.67 to 15 uM measured after 24 hrs by Western blot analysis; assay type: functional, cell-based; conditions: dose 1.67-15 µM
[3] = tested on: MDA-MB-231; experiment: Antitumour activity against human MDA-MB-231 cells xenografted in BALB/c nude mouse assessed as downregulation of cyclin E1 level at 15 to 30 mg/kg, ip administered once for every other day for 20 days by Western blot analysis; assay type: functional, organism-based; conditions: dose 15-30 mg/kg, time 20.0 day
[4] = tested on: MDA-MB-231; experiment: Induction of mitochondrial apoptosis in human MDA-MB-231 cells assessed as late apoptotic cells at 5 uM measured after 24 hrs by FITC -annexin V/PI double staining based flow cytometric analysis (reference value: 2.3%); assay type: functional
[5] = tested on: MDA-MB-231; experiment: Induction of mitochondrial apoptosis in human MDA-MB-231 cells assessed as membrane blebbing by Hoechst 33258 staining based fluorescence microscopic assay; assay type: functional, cell-based
[6] = tested on: MCF7; experiment: Cell cycle arrest in human MCF7 cells assessed as accumulation of cells at S phase at 15 uM measured after 24 hrs by propidium iodide staining based flow cytometry (reference value: 16.8%); assay type: functional
[7] = tested on: MCF7; experiment: Induction of mitochondrial apoptosis in human MCF-7 cells assessed as formation of apoptotic bodies by Hoechst 33258 staining based fluorescence microscopic assay; assay type: functional, cell-based
[8] = Selective index, ratio of IC50 for HUVEC cells to IC50 of MDA-MB-231 cells; assay type: toxicity; conditions: human, HUVEC cells versus MDA-MB-231 cells; read-out: Selectivity Index
[9] = tested on: MDA-MB-231; experiment: Induction of mitochondrial apoptosis in human MDA-MB-231 cells assessed as early apoptotic cells at 5 uM measured after 24 hrs by FITC -annexin V/PI double staining based flow cytometric analysis (reference value: 1.2%); assay type: functional
[10] = tested on: MCF7; experiment: Induction of mitochondrial apoptosis in human MCF-7 cells assessed as membrane blebbing by Hoechst 33258 staining based fluorescence microscopic assay; assay type: functional, cell-based
[11] = tested on: MDA-MB-231; experiment: Inhibition of PI3K in human MDA-MB-231 cells assessed as Akt phosphorylation by Western blot analysis; assay type: cell-based
[12] = tested on: MDA-MB-231; experiment: Induction of apoptosis in human MDA-MB-231 cells assessed as increase in Bax protein expression at 0.56 to 5 uM measured after 24 hrs by Western blot analysis; assay type: functional, cell-based; conditions: dose 0.56-5 µM
[13] = tested on: MCF7; experiment: Cell cycle arrest in human MCF-7 cells assessed as downregulation of CDK6 expression by Western blot analysis; assay type: functional, cell-based
[14] = tested on: MDA-MB-231; experiment: Inhibition of PI3K p85 phosphorylation in human MDA-MB-231 cells by Western blot analysis; assay type: cell-based
[15] = Selective index, ratio of IC50 for HUVEC cells to IC50 of MCF-7 cells; assay type: toxicity; conditions: human, HUVEC cells versus MCF-7 cells; read-out: Selectivity Index
[16] = tested on: MCF7; experiment: Induction of apoptosis in human MCF-7 cells assessed as decrease in Bcl-2 level at 1.67 to 15 uM measured after 24 hrs by Western blot analysis; assay type: functional, cell-based; conditions: dose 1.67-15 µM
[17] = tested on: MDA-MB-231; experiment: Cell cycle arrest in human MDA-MB-231 cells assessed as accumulation of cells at S phase at 5 uM measured after 24 hrs by propidium iodide staining based flow cytometry (reference value: 27.6%); assay type: functional
[18] = tested on: MCF7; experiment: Cell cycle arrest in human MCF-7 cells assessed as downregulation of CDK2 expression by Western blot analysis; assay type: functional, cell-based
[19] = tested on: MDA-MB-231; experiment: Cell cycle arrest in human MDA-MB-231 cells assessed as downregulation of CDK4 expression by Western blot analysis; assay type: functional, cell-based
[20] = tested on: MCF7; experiment: Cell cycle arrest in human MCF-7 cells assessed as upregulation of p21 level by Western blot analysis; assay type: functional, cell-based
[21] = tested on: MDA-MB-231; experiment: Antitumour activity against human MDA-MB-231 cells xenografted in BALB/c nude mouse assessed as tumour growth inhibition at 30 mg/kg, ip administered once for every other day for 20 days relative to control; assay type: functional; conditions: MDA-MB-231, ip, 480 h, time 20 day, read-out: TGI
[22] = tested on: MDA-MB-231; experiment: Induction of mitochondrial apoptosis in human MDA-MB-231 cells assessed as viable cells at 5 uM measured after 24 hrs by FITC -annexin V/PI double staining based flow cytometric analysis (Rvb =94.3%); assay type: functional; conditions: read-out: Activity
[23] = tested on: MCF7; experiment: Cytotoxicity against human MCF-7 cells measured by MTT assay; assay type: functional, cell-based
[24] = tested on: MCF7; experiment: Induction of mitochondrial apoptosis in human MCF7 cells assessed as early apoptotic cells at 15 uM measured after 24 hrs by FITC -annexin V/PI double staining based flow cytometric analysis (reference value: 3.3%); assay type: functional
[25] = tested on: MDA-MB-231; experiment: Cell cycle arrest in human MDA-MB-231 cells assessed as accumulation of cells at G0/G1 phase at 5 uM measured after 24 hrs by propidium iodide staining based flow cytometry (reference value: 44%); assay type: functional
[26] = tested on: MCF7; experiment: Cell cycle arrest in human MCF-7 cells assessed as downregulation of CDK4 expression by Western blot analysis; assay type: functional, cell-based
[27] = tested on: MCF7; experiment: Inhibition of PI3K in human MCF7 assessed as Akt phosphorylation by Western blot analysis
[28] = tested on: MCF7; experiment: Cell cycle arrest in human MCF-7 cells assessed as downregulation of cyclin D3 expression by Western blot analysis; assay type: functional, cell-based
[29] = biological target: T1, Tyrosine-protein phosphatase non-receptor type 1 (Homo sapiens, UniProt P18031); experiment: Inhibition of PTP1B (unknown origin)
T1 sequence (P18031 whole entry): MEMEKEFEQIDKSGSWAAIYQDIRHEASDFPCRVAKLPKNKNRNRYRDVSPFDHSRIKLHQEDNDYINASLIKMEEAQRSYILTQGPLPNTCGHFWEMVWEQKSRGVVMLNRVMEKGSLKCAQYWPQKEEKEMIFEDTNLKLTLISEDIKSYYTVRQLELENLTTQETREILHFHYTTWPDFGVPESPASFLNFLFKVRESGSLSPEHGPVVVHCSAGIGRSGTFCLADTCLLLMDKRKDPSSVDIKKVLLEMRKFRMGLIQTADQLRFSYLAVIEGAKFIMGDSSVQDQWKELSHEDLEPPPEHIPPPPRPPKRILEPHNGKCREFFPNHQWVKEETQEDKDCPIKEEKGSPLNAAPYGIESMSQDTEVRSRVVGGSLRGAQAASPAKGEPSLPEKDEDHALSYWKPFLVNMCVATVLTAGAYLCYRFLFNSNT

[30] = tested on: MDA-MB-231; experiment: Antitumour activity against human MDA-MB-231 cells xenografted in BALB/c nude mouse assessed as tumour growth inhibition at 15 mg/kg, ip administered once for every other day for 20 days relative to control; assay type: functional; conditions: MDA-MB-231, ip, 480 h, time 20 day, read-out: TGI
[31] = tested on: MDA-MB-231; experiment: Cytotoxicity against human MDA-MB-231 cells measured by MTT assay; assay type: functional, cell-based
[32] = tested on: MCF7; experiment: Cell cycle arrest in human MCF-7 cells assessed as downregulation of cyclin E1 expression by Western blot analysis; assay type: functional, cell-based
[33] = tested on: MDA-MB-231; experiment: Cell cycle arrest in human MDA-MB-231 cells assessed as downregulation of cyclin D3 expression by Western blot analysis; assay type: functional, cell-based
[34] = tested on: MCF7; experiment: Induction of mitochondrial apoptosis in human MCF-7 cells assessed as accumulation of reactive oxygen species by flow cytometry; assay type: functional, cell-based
[35] = tested on: MCF7; experiment: Inhibition of PI3K p85 phosphorylation in human MCF7 cells by Western blot analysis; assay type: cell-based

In the case of `CCCC/C=C/CCCCCCCCCC1(O)CC(=O)c2c(O)c(C)c(O)c(C)c2O1` (stereo not given), the Activity [1] was 11.8%, the Activity [2] was “Dose-Dependent Effect” and the Activity [3] was “Active”. The Activity [4] was 7%, the Activity [5] was “Active” and the Activity [6] was 10.3%. For the same compound, the Activity [7] was “Active”, the selectivity ratio [8] was 6.78 and the Activity [9] was 4.8%. For the same compound, the Activity [10] was “Active”, the inhibition [11] was “Dose-Dependent Effect” and the Activity [12] was “Dose-Dependent Effect”. The Activity [13] was “Dose-Dependent Effect”, the inhibition [14] was “Dose-Dependent Effect” and the selectivity ratio [15] was 2.64. The Activity [16] was “Dose-Dependent Effect”, the Activity [17] was 21.3% and the Activity [18] was “Dose-Dependent Effect”. The Activity [19] was “Dose-Dependent Effect”, the Activity [20] was “Dose-Dependent Effect” and the inhibition in vivo at 30 mg/kg [21] was 79.3%. It also gave a viability at 5 µM [22] of 82%, a pIC50 [23] of 4.76 and an Activity [24] of 4.7%. The Activity [25] was 62.4%, the Activity [26] was “Dose-Dependent Effect” and the inhibition [27] was “Dose-Dependent Effect”. For the same compound, the Activity [28] was “Dose-Dependent Effect”, the pIC50 [29] was 5.74 and the inhibition in vivo at 15 mg/kg [30] was 53.6%. The pIC50 [31] was 5.17, the Activity [32] was “Dose-Dependent Effect” and the Activity [33] was “Dose-Dependent Effect”. For the same compound, the Activity [34] was “Active” and the inhibition [35] was “Dose-Dependent Effect”.
